The source of these data is patent publication US20250312416A1, “METHOD AND PHARMACEUTICAL COMPOSITION FOR CARTILAGE REGENERATION” (FAR EASTERN MEMORIAL HOSPITAL, priority 2024, published 2025).

The subject of one test is UC-MSCs. The test is described as follows: Alcian blue staining of chondrogenic pellets (GAG), UC-MSCs. Format: cell-based. The following applies: in the presence of TGF-beta. An excerpt: FIG. 13A provides flowchart illustrating the protocol for peptide treatment and sample collection. […] TGF-beta influenced the expression of chondrogenic genes, including ITGB1 and COMP. […] Treatment with CXCL14/CXCL12 peptides increased GAG content during chondrogenesis in the presence of TGF-beta.
To further validate the role of CXCL14-P and CXCL12-P in regulating chondrogenesis, we compared their effects on another MSC source, umbilical cord-derived mesenchymal stem cells (UC-MSCs). It is important to note that the chondrogenic induction medium contained TGF-β. During chondrogenesis, we observed that the chondrogenic patterns in UC-MSCs were lower than those in ADSCs (FIG. 12). Subsequently, we assessed the chondrogenic potential of UC-MSCs following stimulation with CXCL14-P and CXCL12-P (FIG. 13A). […] Although the expression of chondrogenic genes (FIG. 13B) and GAG content (FIG. 13C) in UC-MSCs was not as pronounced as in ADSCs, the findings confirm that CXCL14-P and CXCL12-P can robustly stimulate chondrogenesis across different MSC sources.

A further test deals with ADSC spheroids. The experiment in a line: Immunofluorescence / confocal microscopy of chondrogenic proteins in ADSC spheroids. The test is classed as cell-based, human. The settings on record: 3D ADSC spheroids, by day 7. On the procedure:
Both side views (observed in the x and z plane) and bottom views (observed in the […]) of the images are provided. The scale bar is set at 500 μm.
ADSCs were treated with CXCL14-P, CXCL14-P1, or CXCL14-P2, respectively, at a concentration of 10 ng for 24 hours, after which the medium was replaced with fresh peptide-free medium. On day 7, total RNA was extracted, and real-time PCR analysis was performed to assess the expression levels of key chondrogenic markers, including ACAN, COL2A1, SOX9, and COMP. Gene expression levels were quantified using a LightCycler system (Roche Applied Science), with fold changes calculated relative to untreated control ADSCs. […] Immunofluorescence staining was performed to detect Collagen Type II, SOX9, COMP, and nuclei (Hoechst 33342) in 3D ADSC spheroids (middle panel).
(FIG. 3). […] Moreover, fluorescence confocal microscopy was employed to detect protein patterns and confirm the levels of SOX9, type II collagen, and aggrecan proteins in ADSC spheroids. […] Finally, to investigate whether the CXCR4 receptor of CXCL12/CXCL14 confers chondrogenic signaling during chondrogenesis, we treated ADSCs with a CXCR4 agonist for 7 days.
Extracellular vesicles (EVs) derived from MSCs hold significant potential for repairing damaged tissues. In this study, we explored whether EVs from ADSCs could effectively enhance chondrogenesis and promote cartilage repair. Immunofluorescence staining was used to assess protein levels of Collagen Type II (green), SOX9 (red), COMP (indigo), and Hoechst 33342 (gray) in 3D ADSC spheroids treated with MSC-EVs derived from CXCL14 peptide-primed ADSCs (CXCL14-P-MSC-EVs) at various time points. […] To further explore the cartilage repair functions of EVs from CXCL14-P-treated ADSCs and the encapsulation of the transcription factor SOX9 within MSCs and purified EVs, we performed in vivo studies.

Turning to ITTKSVSRYRGQEH [CXCL14-P], the “GAG content (Alcian blue)” value in the test on UC-MSCs is recorded as “increased”. Moreover, the “Collagen Type II, SOX9, and COMP expression” value in the test on ADSC spheroids is reported as “increase”.
